Results as given in patent US8957087B2, “Heterocyclic substituted acardite derivate and application thereof” (Jiangsu Provincial Institute of Materia Medica Co., Ltd., priority 2009, dated 2015).
Where two headings read alike, the source gives them in different places.

How the values were obtained:
[1] = system: human lung cancer A549 transplantation tumor; type: in vivo; details: 60 mg/kg, 6 times every week for 3 weeks; for Relative tumor reproduction rate T/C (%) on human lung cancer A549 transplantation tumor in nude mice: BALB/cA nude mice, Sorafenib oral 60 mg/kg
Procedure, shortened: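 Female BALB/cA nude mice, 35-40 days old, bearing A549 human lung cancer transplants; 6 per treatment group, 12 saline controls. Compound given at 60 mg/kg, 6 times weekly for 3 weeks, then observed one week.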

[2] = system: renal carcinoma cell line GCR-1 transplanted tumor; type: in vivo, BALB/cA nude mice; details: 60 mg/kg, 6 times every week for 3 weeks; for Relative tumor reproduction rate T/C (%) on human renal carcinoma GCR-1 cell transplanted tumor model in nude mice: BALB/cA nude mice, Sorafenib oral 60 mg/kg
Procedure, shortened: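 Female BALB/cA nude mice (18–22 g) bearing GCR-1 renal carcinoma xenografts, 6 per treated group, 12 saline controls. Drug given at 60 mg/kg, 6 times weekly for 3 weeks, then one week of observation; tumor inhibition rate reported.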

[3] = system: Raf-1(truncated); experiment: Raf-1 inhibitor screening by chemoluminescence method; type: biochemical; details: Final concentration 1 x 1.0*10^−5 mol/ml
From the text: 1. Inhibitory activity of the compound of the present invention on raf kinase
Raf-1 inhibitor screening by chemoluminescence method
Westernblot electrophoresis apparatus Rotaryshaker
Raf-1(truncated), Magnesium/ATP Cocktail, MEK1 unactive

[4] = system: human umbilical vein endothelial cell HUVEC; experiment: Growth of human umbilical vein endothelial cell HUVEC by CCK8 method; type: cell-based; details: Final concentration 1 x 1.0*10^(−5) mol/L
Procedure, shortened: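 HUVEC cells were grown in 1640 medium with 10% FBS, and growth was measured by the CCK8 method. OD values of drug and control wells were corrected by subtracting the blank-well OD.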

[5] = system: Human colon cancer HT-29 transplantable tumor; experiment: Human colon cancer HT-29 transplantable tumor in nude mice; details: for Relative tumor reproduction rate T/C (%): HT-29 in nude mice
Procedure: Experimental therapeutic action of the compound in the present invention on Human colon cancer HT-29 transplantable tumor in nude mice.
Take eugenic tumor tissues and cut into about 1.5 mm^3, and then incoculate subcutaneously at the right armpit of nude mice under the sterile conditions. The diameter of the transplantable tumor in nude mice was determined with a vernier caliper, and the animals were divided into groups after the tumors were grown to 100-300 mm^3. Using the method of measuring the tumor diameter, dynamically observe the antitumor effects of tested materials. The diameter of the tumor was determined three times every week and the mouse weight was weighed at the same time. […] The solvent was intragastrically administrated as the control for continuous 9 times. Equal amount of control was administrated in the negative control group.
Tumor volume (TV) is calculated as: TV=½×a×b^2, wherein a and b respectively represent length and width.
Relative tumor volume (RTV) is calculated as: RTV=TVt/TV0, wherein TV0 is the tumor volume when administrated according to different cages and TVt is the tumor volume measured each time.
Relative tumor reproduction rate T/C (%) is calculated as follows:
TRTV: RTV in the treatment group; CRTV: RTV in the negative control group.
The test results used relative tumor reproduction rate T/C (%) as evaluating indicator of anti-tumor activity.

[6] = system: human liver cancer cell bel-7402 transplantation tumor; type: in vivo; details: 60 mg/kg, 6 times every week for 3 weeks; for Relative tumor reproduction rate T/C (%) on human liver cancer cell bel-7402 transplantation tumor model in nude mice: BALB/cA nude mice, Sorafenib oral 60 mg/kg
Procedure, shortened: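 Female BALB/cA nude mice (35–40 days, 18–22 g) bearing Bel-7402 xenografts; 6 mice per treated group, 12 in saline controls. Compound dosed at 60 mg/kg, 6 times weekly for 3 weeks, followed by one week of observation; tumor inhibition rate scored against controls.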

[7] = system: human umbilical vein endothelial cell HUVEC; experiment: Lumen formation ability of HUVEC (Matrigel method); type: cell-based; details: Final concentration 1 x 1.0*10^(−5) mol/L
Procedure, shortened: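 HUVEC at passage 3–5, cultured in M199 at 37° C under 5% CO2, were plated on Matrigel with compound. Spontaneous lumen formation was scored as an inhibition rate.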

[8] = system: mice S180 sarcoma; experiment: Experimental therapeutic action on S180 sarcoma mice; details: for Tumor growth inhibition rate (%): mice S180 sarcoma, 60 mg/kg orally for 9 days
Procedure: Experimental therapeutic action of the compound in the present invention on S180 sarcoma mice
18-25 g female ICR mice and well grown 7-11 day old mice sarcoma S180 tumor seeds were selected, and the seeds were inoculated into the subcutaneous at the right axillary. After inoculated 24 hours, these mice were randomly divided into cages and orally administrated 60 mg/kg for 9 days. On 10 day, the animals were killed and weighed, and the tumor weights were weighed to calculate average tumor weight in each group, followed by calculating the tumor inhibition rate according to the following formula and T test.

[9] = system: lung cancer cell A549; experiment: Effects on the adhesive ability of lung cancer cell A549; type: cell-based, human; details: Final concentration 1 x 1.0*10^(−5) mol/L
Procedure, shortened: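 A549 cells in 1640 medium with 10% FBS tested for adhesion to gelatin versus poly-lysine (PLL), with CCK8 used as read-out. Inhibition rate derived from the gelatin/PLL adhesion OD ratio of dosed cells relative to the undosed cell group.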

[10] = system: human lung cancer cell strain A549; experiment: MTT assay, inhibition of growth of human lung cancer cell strain A549; type: cell-based
Procedure, shortened: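 A549 cells grown in F12 with 10% FBS; growth read by MTT, inhibition rate from blank-corrected OD of drug wells versus control wells.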

[11] = system: human high-metastic lung cancer cell 95D; experiment: Inhibition of human high-metastic lung cancer cell 95D migration (Boyden Chamber Transwell); type: cell-based; details: Final concentration 1 x 1.0*10^(−5) mol/L
Procedure, shortened: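 Boyden Transwell migration (8 μm pores) of 95D cells, RPMI-1640 with 10% FBS versus serum-free medium; inhibition rate calculated.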

[12] = Final concentration 1 x 1.0*10^(−5) mol/L

Compound	Relative tumor reproduction rate T/C (%) on human lung cancer A549 transplantation tumor in nude mice [1] [%]	Relative tumor reproduction rate T/C (%) on human renal carcinoma GCR-1 cell transplanted tumor model in nude mice [2] [%]	Inhibition rate % on raf kinase [3] [%]	Inhibition rate, growth of HUVEC cell [4] [%]	Relative tumor reproduction rate T/C (%) ([5]; 60 mg/kg ig 9 times)	Relative tumor reproduction rate T/C (%) on human liver cancer cell bel-7402 transplantation tumor model in nude mice [6] [%]	Inhibition rate, lumen formation ability of HUVEC [7] [%]	Tumor growth inhibition rate (%) [8] [%]	Inhibition rate, adhesion ability of human lung cancer cell A549 [9] [%]	Inhibition rate, growth of human lung cancer cell A549 [10] [%]	Inhibition rate, 95D cell strain migration [11] [%]	Inhibition rate, growth of human lung cancer cell A549 [10, 12] [%]	other results
CCCNC(=O)c1cc(Oc2ccc(NC(=O)Nc3ccc(Cl)c(OC)c3)c(F)c2)c2ccc(C(F)(F)F)cc2n1 [Compound 37]	38.3	32.3	81.5	19.65	39.5	36.3	71.72	24.1	71.74	71.65	79.25		
CNC(=O)c1cc(Oc2ccc(NC(=O)Nc3ccc(Br)c(C(F)(F)F)c3)cc2)c(C)[nH]1 [Compound 15, N-(4-bromo-3-(trifluoromethyl)phenyl)-N′-(4-(2-(N-methylaminoformoxyl)-4-(5-methyl-pyrryl)oxy)phenyl)urea]	38.7	22.5	35.5	38.17	85.2	33.6	68.64	56.7	68.63		63.68	72.17	
CCCNC(=O)c1cc(Oc2ccc(NC(=O)Nc3ccc(Cl)c(OC)c3)c(C(F)(F)F)c2)c2ccc(C(F)(F)F)cc2n1 [Compound 38]	36.5	20.5	88.1	14.56	41.2	31.5	65.55	59.2	75.53	74.56	80.53		
N-(4-chloro-3-(trifluoromethyl)phenyl)-N′-(4-(2-(N-methylaminoformoxyl)-4-(7 fluoroquinazolinyl)oxy)phenyl)urea [Compound 4]	12.3	9.6	82.2	5.12	33.15	15.3	86.77	50.1	89.71		96.38	91.12	
COc1ccc2nccc(Oc3ccc(NC(=O)Nc4ccc(Cl)c(C(F)(F)F)c4)cc3)c2c1 [Compound 16]	9.9	9.9	62.1	10.71	55.2	14.9	80.79	33.6	90.77		89.31	89.71	
COc1ncncc1Oc1ccc(NC(=O)Nc2ccc(Br)c(C(F)(F)F)c2)cc1 [Compound 24, N-(4-bromo-3-(trifluoromethyl)phenyl)-N′-(4-(5-(4-methoxypyrimidinyl)oxy)phenyl)urea]	15.6	10.8	91.3	13.32	37.8	16.8	93.78	54.6	73.30	86.32	85.48		
Cc1cc(Oc2ccc(NC(=O)Nc3ccc(Cl)c(C(F)(F)F)c3)cc2)c[nH]1 [Compound 28, N-(4-chloro-3-(trifluoromethyl)phenyl)-N′-(4-(4-(2-methyl-pyrryl)oxy)phenyl)urea]	13.6	11.4	33.5	20.55	39.1	17.5	89.52	11.5	90.53	88.52	70.53		
CNC(=O)c1cc(Oc2ccc(NC(=O)Nc3ccc(Cl)c(C(F)(F)F)c3)cc2)ccn1 [Sorafenib, reference compound]			85.7	22.61			55.60		72.66	54.60	62.32		Mortality of the animals [1]: no mortality; Mortality of the animals [2]: no mortality; Weight (g) d0 ([5]; nude mouse body weight d0, 60 mg/kg): 19.9 ± 1.1 g; Weight (g) d13 ([5]; nude mouse body weight d13, 60 mg/kg ig 9 times): 20.4 ± 1.4 g; RTV ([5]; relative tumor volume, 60 mg/kg ig 9 times): 2.36 ± 0.57; TV d0 ([5]; tumor volume d0, 60 mg/kg): 133 ± 33; TV d13 ([5]; tumor volume d13, 60 mg/kg ig 9 times): 308 ± 86; Mortality of the animals [6]: no mortality; Tumor weight x ± SD ([8]; 60 mg/kg ig for 9 days, day 10): 0.71 ± 0.30 g; Tumor growth inhibition rate (%) ([8]; 60 mg/kg): 55.9%; Tumor growth inhibition rate (%) ([8]; listed as Sora, 60 mg/kg): 55.9%
